# Tests used:
# Assay type in all cases: in vivo, Sprague-Dawley rats
# ovariectomized rats [1] = assay: Relative uterus weight, 8-PN racemic, 2S(−) 8-PN and estradiol hemihydrate in ovariectomized rats (Example 4); details: OVX rats
# Description: (§1) The aim of the study was to directly compare the effects of Prenylnaringenin (racemate) and 2S(−) 8-Prenylnaringenin to the effects of estradiol hemihydrate on bone mineral density and uterine weight on 3-month-old ovariectomized rats using identical formulations. In addition, the effects of estradiolhemihydrate in two vehicles (oily, aqueous) were examined for influence of formulations. The substances were administered subcutaneously(s.c.) seven days a week beginning the day after ovariectomy. At the end of the study, uterine weight and bone mineral density (BMD) of tibia were measured.
# (§2) Forty-one female Sprague-Dawley rats, 12-14 weeks of age were randomized into six groups, 6-8 animals in each. Five groups were ovariectomized (OVX) and one group was sham-operated (SHAM). Treatments started on the day following operation and continued for 28 days. The animals were treated s.c. once a day seven times a week as follows. Group 1 (SHAM vehicle group) and group 2 (OVX vehicle group) were given the vehicle 30% hydroxypropyl-β-cyclodextrin (HP-β-CD). Groups 3 and 4 were administered 4 μg/kg/d of estradiol hemihydrate in vehicle benzyl benzoate/ricinus oil (B/R) and in vehicle HP-β-CD, respectively. Groups 5 and 6 were given 20 mg/kg/d of 2S(−)8-Prenylnaringenin and racemic 8-Prenylnaringenin, respectively, both in vehicle HP-β-CD. At the end of the study, left tibiae were excised for the ex vivo BMD […] were taken from all dosing solutions on the first and last day of use.
# (§3) Vehicle 1 (used in the groups 1 and 2): 30% hydroxypropyl-β-cyclodextrin and 0.3% NaCl (w/v), 5% ethanol (v/v) in Aqua sterilisata, pH 7.4.
# (§4) Vehicle 2 (used when preparing dosing solutions of the groups 4, 5 and 6): 30% hydroxypropyl-β-cyclodextrin and 0.3% NaCl (w/v) in Aqua sterilisata, pH 7.4.
# (§5) Vehicle 3 (used when preparing a dosing solution of the group 3): benzyl benzoate/ricinus oil (B/R) 1+4, v/v.
# ovariectomized rats [2] = assay: Relative uterine weight, 2S(−) 8-PN in ovariectomized rats (Example 3); details: OVX rats; for Relative uterus weight, Mean: s.c. 7 times a week
# Description: The aim of the study was to examine bone and uterine effects of a 4-week treatment with 2S(−) 8-Prenylnaringenin (8-PN) in 3-month-old ovariectomized rats. […] At the end of the study, uterine weight and ex vivo bone mineral density (BMD) of tibia were measured.
# A total of 30 female 13-14-week-old Sprague-Dawley rats were used in the study. The animals were randomized into 5 groups, with 6 rats/group. Group 1 was sham-operated (SHAM) and groups 2-5 were ovariectomized (OVX).
# Treatments with the vehicle or test substance started on the day following operation. […] The animals were sacrificed one day after the last dosing. At the end of the study, left tibiae were excised for ex vivo BMD measurement (pQCT) at proximal tibia and uteri were excised for the determination of absolute and relative weights. In addition, samples for the determination of 2S(−)8-Prenylnaringenin concentration were taken from all dosing solutions on the day when they were prepared and on the last day of use. The data of body weights, relative uterine weights and BMD were analyzed with one-way analysis of variance.
# Relative uterine weight was calculated as percentage of body weight
# ovariectomized rats [3] = assay: Trabecular density of proximal tibia, 8-PN racemic, 2S(−) 8-PN and estradiol hemihydrate in ovariectomized rats (Example 4); details: OVX rats; s.c. 28 days; 20 mg/kg/d in HP-β-CD
# Description: as §1, §2, §3, §4, §5
# [4] = s.c. 28 days, 20 mg/kg/d in HP-β-CD, calculated as percentage of body weight
smiles,measurement,setting,value
"CC(C)=CCc1c(O)cc(O)c2c1O[C@H](c1ccc(O)cc1)CC2=O [2S(−)8-PN, 2S(−) 8-Prenylnaringenin]",effect on the uterus and body weight compared with estradiol in the same vehicle (HP-β-CD),"ovariectomized rats [1]; 20 mg/kg/d vs estradiol 4 μg/kg/d, same bone effective dose",much lower effect on the uterus and body weight than estradiol at the same bone effective dose
same,"Relative uterus weight, Mean",ovariectomized rats [1]; [4],0.067
same,"Relative uterus weight, Median",ovariectomized rats [1]; [4],0.067
same,effect on the uterus compared with 17β-estradiol,ovariectomized rats [2]; at the same bone effective dose,much lower effect on the uterus than 17β-estradiol at the same bone effective dose
same,increase of relative uterine weight compared to ovariectomy,"ovariectomized rats [2]; dose range 0.67-18 mg/kg/d s.c., 4 weeks",less than twofold
same,relative uterine weights,"ovariectomized rats [2]; dose range 0.67-18 mg/kg/d, SHAM group 0.194%",0.054-0.065%
same,"Relative uterus weight, Mean","ovariectomized rats [2]; 4 weeks, 0.67 mg/kg/d",0.054%
same,"Relative uterus weight, Mean","ovariectomized rats [2]; 4 weeks, 1.77 mg/kg/d",0.063%
same,"Relative uterus weight, Mean","ovariectomized rats [2]; 4 weeks, 18 mg/kg/d",0.065%
same,"Trabecular density at left proximal tibia, Mean",ovariectomized rats [3],352 mg/cm3
same,"Trabecular density at left proximal tibia, Median",ovariectomized rats [3],352 mg/cm3
